Measured values taken from patent US7795220B2, “Conformationally constrained parathyroid hormones with alpha-helix stabilizers” (The General Hospital Corporation, priority 2003, dated 2010).
Non-standard residues stand in square brackets, D forms with d. Residues, ends and D or L forms follow the SMILES beside them. hArg = N=C(N)NCCCC[C@H](N)C(=O)O; Ac5c = NC1(C(=O)O)CCCC1; Aib = CC(C)(N)C(=O)O

Legend:
[1] = tested on: P1R (recombinant P1R chimera) in HKRK-B28 cells; assay: cAMP stimulation in HKRK-B28 cells; type: cell-based, opposum/rat chimera
Text: Cell Culture. The cell line HKRK-B28 (Takasu, H., et al., J. Bone Miner. Res. 14:11-20 (1999)) was derived from the porcine kidney cell line, LLC-PK1 by stable transfection with plasmid DNA encoding a recombinant P1R chimera comprised of the opposum P1R from the N-terminus to the mid region of TM3 and the rat P1R from the mid region of TM3 to the C-terminus. The surface density of the P1R in these cells is ˜280,000 receptors per cell. The clonal cell line LdelNt-2 was derived from LLC-PK, cells via stable transfection with a plasmid encoding P1R-delNt, a recombinant human PTH-1 receptor construct in which most of the amino-terminal extracellular domain is deleted. These cells, as well as COS-7 cells and SaOS-2-B10 cells, were cultured at […] in T-75 flasks ([…]) in Dulbecco's modified Eagle's medium (DMEM) supplemented with fetal bovine serum (10%), penicillin G (20 units/ml), streptomycin sulfate (20 μg/ml) and amphotericin B (0.05 μg/ml) in a humidified atmosphere containing 5% CO2. Stock solutions of EGTA/trypsin and antibiotics were from GLBCO; fetal bovine serum was from Hyclone Laboratories (Logan, Utah). COS-7 cells sub-cultured in 24-well plates were transfected with plasmid DNA (200 ng per well) encoding the wild-type human P1R or truncated human P1R deleted for residues (24-181) (Shimizu, M., et al., J. Biol. Chem. 275:21836-21843 (2000)) that was purified by cesium chloride/ethidium bromide density gradient centrifugation, and FuGENE 6 transfection reagent (Roche Indianapolis Ind.) according to the manufacturer's recommended procedure. All cells, in 24-well plates, were treated with fresh media and shifted to 33° C. for 12 to 24 h prior to assay.
cAMP Stimulation. Stimulation of cells with peptide analogs was performed in 24-well plates. Cells were rinsed with 0.5 mL of binding buffer (50 mM Tris-HCl, 100 mM NaCl, 5 mM KCl, 2 mM CaCl2, 5% heat-inactivated horse serum, 0.5% fetal bovine serum, adjusted to pH 7.5 with HCl) and treated with 200 μL of cAMP assay buffer (Delbecco's modified Eagle's medium containing 2 mM 3-isobutyl-1-methylxanthine, 1 mg/mL bovine serum albumin, 35 mM Hepes-NaOH, pH 7.4) and 100 μL of binding buffer containing varying amounts of peptide analog (final volume=300 μL). The medium was removed after incubation for 30 to 60 minutes at room temperature, and the cells were frozen on dry ice, lysed with 0.5 mL 50 mM HCl, and refrozen ([…]). The cAMP content of the diluted lysate was determined by radioimmunoassay. The EC50 response values were calculated using nonlinear regression (see below).
Data Calculation. Calculations were performed using Microsoft® Excel. Nonlinear regression analyses of binding and cAMP dose-response data were performed using the four-parameter equation: yp=Min+[(Max−Min)/(1+(IC50/x)^slope)]. The Excel Solver function was utilized for parameter optimization, as described previously (Carter, P. H., et al., Endocrinology 140: 4972-4981 (1999); Bowen, W. P., and Jerman, J. C., Trends in Pharmacol. Sci. 16: 413-417 (1995)). Differences between paired data sets were statistically evaluated using a one-tailed Student's t-test, assuming unequal variances for the two sets.

hP1R = biological target: T1, hP1R (Homo sapiens, UniProt Q03431); assay: Stimulation of inositol phosphate production / phospholipase C in COS-7 cells; type: cell-based
T1 construct: expressed in transfected cells; host or cells: COS-7, transient transfection (FuGENE 6)
T1 sequence (Q03431 27-593): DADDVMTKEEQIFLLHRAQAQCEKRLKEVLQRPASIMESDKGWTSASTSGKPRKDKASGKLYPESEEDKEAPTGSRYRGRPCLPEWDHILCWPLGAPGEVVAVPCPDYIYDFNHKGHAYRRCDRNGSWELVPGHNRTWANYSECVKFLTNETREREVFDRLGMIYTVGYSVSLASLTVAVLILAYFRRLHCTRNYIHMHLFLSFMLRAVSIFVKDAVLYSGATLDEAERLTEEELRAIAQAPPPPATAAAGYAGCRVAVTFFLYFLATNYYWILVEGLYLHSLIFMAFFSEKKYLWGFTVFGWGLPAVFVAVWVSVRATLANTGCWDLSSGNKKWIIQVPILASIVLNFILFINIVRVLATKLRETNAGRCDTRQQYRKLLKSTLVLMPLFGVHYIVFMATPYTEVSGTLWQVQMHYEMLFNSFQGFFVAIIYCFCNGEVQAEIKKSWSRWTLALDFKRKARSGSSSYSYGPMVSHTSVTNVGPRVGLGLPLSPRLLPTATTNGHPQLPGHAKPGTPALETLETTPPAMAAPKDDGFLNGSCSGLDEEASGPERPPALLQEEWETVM
Text: Cell Culture. The cell line HKRK-B28 (Takasu, H., et al., J. Bone Miner. Res. 14:11-20 (1999)) was derived from the porcine kidney cell line, LLC-PK1 by stable transfection with plasmid DNA encoding a recombinant P1R chimera comprised of the opposum P1R from the N-terminus to the mid region of TM3 and the rat P1R from the mid region of TM3 to the C-terminus. The surface density of the P1R in these cells is ˜280,000 receptors per cell. The clonal cell line LdelNt-2 was derived from LLC-PK, cells via stable transfection with a plasmid encoding P1R-delNt, a recombinant human PTH-1 receptor construct in which most of the amino-terminal extracellular domain is deleted. These cells, as well as COS-7 cells and SaOS-2-B10 cells, were cultured at […] in T-75 flasks ([…]) in Dulbecco's modified Eagle's medium (DMEM) supplemented with fetal bovine serum (10%), penicillin G (20 units/ml), streptomycin sulfate (20 μg/ml) and amphotericin B (0.05 μg/ml) in a humidified atmosphere containing 5% CO2. […]
Stimulation of Inositol Phosphate Production. […] The lysate was then applied to an ion exchange column (0.5 mL resin bed) and the total inositol phosphates were eluted as described previously (Berridge, M. J., et al., Biochem. J. 212:473-482 (1983)), and counted in liquid scintillation cocktail.

SMILES: CC[C@H](C)[C@H](NC(=O)[C@H](CCC(=O)O)NC(=O)C(C)(C)NC(=O)[C@@H](NC(=O)C1(N)CCCC1)C(C)C)C(=O)N[C@@H](CCC(N)=O)C(=O)N[C@@H](CC(C)C)C(=O)N[C@@H](CCSC)C(=O)N[C@@H](Cc1c[nH]cn1)C(=O)N[C@@H](CCC(N)=O)C(=O)N[C@@H](CCCCNC(=N)N)C(=O)N[C@@H](C)C(=O)N[C@@H](CCCCN)C(=O)N[C@@H](Cc1c[nH]c2ccccc12)C(N)=O [[Ac5c^1,Aib^3,M]PTH(1-14), [Ac5c^1,Aib^3,Gln^10,Har^11,Ala^12,Trp^14]PTH(1-14)NH2] (H-[Ac5c]V[Aib]EIQLMHQ[hArg]AKW-NH2)
- potency for stimulating adenylyl cyclase relative to [Aib1,3,M]PTH(1-14) [1]: 2 fold
- EC50 ([1]; HKRK-B28 cells, intracellular cAMP accumulation, read-out: cAMP-stimulating potency (EC50)): 0.9 nM
- increase in cAMP levels relative to basal ([1]; HKRK-B28 cells, peptide at 10 nM): 38 fold
- potency for stimulating phospholipase C relative to [Aib1,3,M]PTH(1-14) (hP1R): 2 fold
